Measurements as given in patent publication US20150328198A1, “METHODS OF TREATING METHICILLIN-RESISTANT STAPHYLOCOCCUS AUREUS (MRSA) USING PPAR-GAMMA AGONISTS” (priority 2014, published 2015).

Test system: MRSA
Experiment: murine MRSA skin and soft tissue infection (SSTI) model
Format: in vivo, mice
Description: Peroxisome Proliferator Activator Receptor-γ (PPAR-γ) is a nuclear receptor that inhibits inflammation and redirects macrophages towards an M2 phenotype by driving Arg-1, Scd-1, SSAT and fatty acid synthesis gene expression. PPAR-γ is therefore involved in the development of adipocytes as well as M2-MΦs.

| Structure (SMILES) | number of viable bacteria in wounds/abscesses (day 12) | resolution of MRSA SSTIs (mouse, in vivo) | reduction of average time to healing (mouse, in vivo) | beneficial effects of treatment in PPAR-γ-/- mice (mice lacking myeloid PPAR-γ) |
| --- | --- | --- | --- | --- |
| O=C(Nc1ccccc1)c1cc([N+](=O)[O-])ccc1Cl [GW9662] | greatly increased | non-resolving |  |  |
| CCc1ccc(CCOc2ccc(CC3SC(=O)NC3=O)cc2)nc1 (centres unmarked) [Pioglitazone] |  |  | ~5 days |  |
| CN(CCOc1ccc(CC2SC(=O)NC2=O)cc1)c1ccccn1 (centres unmarked) [Rosiglitazone] |  |  | ~5 days | no effect |
